Columns and labels:
[1] = ACE complex stability, SBE-β-CD DS~10.4; assay type: physicochemical; settings: sulfobutyl-ether-β-CD DS~10.4, 30 mM phosphate buffer pH 7.4, 25 °C
Method: (§1) To investigate the CD complexation behavior of the four kratom alkaloids, we aimed to develop an ACE method for a systematic comparative study. […] To ensure sufficient buffer capacity and to avoid excessive current and Joule heat generation, the buffer concentration was set to 30 mM, and the applied voltage was 15 kV.
(§2) The ACE experiments were performed by using Agilent 7100 and HP^3DCE instruments (Agilent Technologies, Waldbronn, Germany). Untreated fused silica capillaries (total length of 48.5 cm, effective length of 40 cm, inner diameter of 50 μm) were purchased from Agilent Technologies. The new capillaries were conditioned with a 1 M NaOH wash for 1 h, followed by a 30 min wash each with 0.1 M NaOH and purified water. Prior to all runs, the capillary was preconditioned by rinsing with background electrolyte for 3 min. During the measurements, 30 mM phosphate buffer at pH 7.4 (30 mM Na2HPO4-NaOH) was used. The background electrolyte contained CDs at various concentrations. […] The electropherograms were recorded at four wavelengths (200 nm, 210 nm, 215 nm, and 220 nm), and the data were evaluated at 215 nm. […] The measurements were evaluated using Origin and CEval software (v. 0.6i3). […]

[2] = ACE complex stability, S-β-CD; assay type: physicochemical; settings: sulfated-β-CD DS~13, 30 mM phosphate buffer pH 7.4, 25 °C
Method: as §1, §2

[3] = phase-solubility study, HP-β-CD; assay type: physicochemical; settings: 30 mM phosphate buffer pH 7.4, room temperature
Method: (§3) Based on our ACE measurements, the promising CDs were selected for phase-solubility studies, along with the most widely used CD excipients, to investigate the effect of CD type and its concentration on mitragynine solubility. The experiments were conducted under conditions similar to those in the ACE measurements, applying 30 mM phosphate buffer (pH 7.4) and room temperature.
(§4) UV spectra and chromatograms were recorded at 200–400 nm, and the chromatogram obtained at 226 nm was used for quantitative analyses.
(§5) Solubility measurements were performed according to Higuchi and Connors. To each 1 mg mitragynine sample, the selected cyclodextrins were added. The final concentration of the CDs was in the range of 0–1 (m/v) %. Suspensions were shaken at room temperature for 24 h and filtered using 0.22 μm filters. The mitragynine concentration in the samples was determined by the above-described UHPLC-UV method. The solubility diagrams were constructed, and the stability constant (Kstab) and complexation efficacy (CE) were calculated using the following formulas:(5) Kstab=slope/S0(1−slope) (6) CE=slope/1−slope where S0 is the intrinsic solubility of a poorly soluble drug. The experiments were performed in a 30 mM phosphate buffer (pH 7.4).

[4] = phase-solubility study, CM-β-CD; assay type: physicochemical; settings: 30 mM phosphate buffer pH 7.4, room temperature
Method: as §3, §4, §5

[5] = phase-solubility study, Subetadex; assay type: physicochemical; settings: 30 mM phosphate buffer pH 7.4, room temperature; for complexation efficacy (CE) with Subetadex: phase solubility, calculated from the linear part of the isotherm
Method: as §3
In the case of Subetadex, which had the highest solubility enhancement, an AN-type isotherm could be observed with a negative deviation from linearity, indicating a complex process: either the host ratio inside the complex increased, the solvent–solute interactions altered, or both contributed simultaneously.
as §4, §5

[6] = phase-solubility study, SBE-β-CD DS~10.4; assay type: physicochemical; settings: 30 mM phosphate buffer pH 7.4, room temperature
Method: as §3, §4, §5

[7] = phase-solubility study, S-β-CD; assay type: physicochemical; settings: 30 mM phosphate buffer pH 7.4, room temperature
Method: as §3, §4, §5

[8] = set-up: method as in PMID 25793541; settings: at pH 7; cited from earlier work
[9] = set-up: method as in PMID 24841968; settings: after 2 h; cited from earlier work
[10] = set-up: method as in PMID 28551311; settings: in vivo microdialysis technique, in words; cited from earlier work

Compound | complex stability constant (Kstab) with SBE-β-CD DS~10.4 [1] | complex stability constant (Kstab) with S-β-CD [2] | Kstab with HP-β-CD (phase solubility) ([3]; 24 h, CD 0–1 (m/v) %) | complexation efficacy (CE) with HP-β-CD ([3]; phase solubility) | Kstab with CM-β-CD (phase solubility) ([4]; 24 h, CD 0–1 (m/v) %) | complexation efficacy (CE) with CM-β-CD ([4]; phase solubility) | phase-solubility isotherm type with Subetadex [5] | Kstab with Subetadex (phase solubility) ([5]; 24 h, CD 0–1 (m/v) %) | complexation efficacy (CE) with Subetadex [5] | complexation efficacy (CE) with Subetadex ([5]; listed as mitragynine) | Kstab with SBE-β-CD DS~10.4 (phase solubility) ([6]; 24 h, CD 0–1 (m/v) %) | complexation efficacy (CE) with SBE-β-CD DS~10.4 ([6]; phase solubility) | Kstab with S-β-CD (phase solubility) ([7]; 24 h, CD 0–1 (m/v) %) | complexation efficacy (CE) with S-β-CD ([7]; phase solubility) | logD [8] | degraded under acidic conditions [9] | blood–brain barrier permeability [10]
CC[C@H]1CN2CCc3c([nH]c4cccc(OC)c34)[C@@H]2C[C@@H]1/C(=C\OC)C(=O)OC [Speciogynine, speciogynine] | ~10,000 M^−1 | 970 ± 80 M⁻¹ | – | – | – | – | – | – | – | – | – | – | – | – | – | – | –
mitragynine | – | – | 30 M⁻¹ | 0.0011 | 300 M⁻¹ | 0.0113 | AN-type | 1730 M⁻¹ | 0.0650 | 0.065 | 1020 M⁻¹ | 0.0382 | 340 M⁻¹ | 0.0127 | 1.73 | more than 26% | excellent
